Data: the NIST ThermoML archive (doi:10.1021/je5005752)

Columns and labels:
[1] = 101 kPa, Liquid; for viscosity: Falling or rolling sphere viscometry; for mass density: Vibrating tube method
[2] = xn = mol fraction of the nth substance listed; conditions: 101 kPa, Liquid, x2 = 0; for viscosity: Falling or rolling sphere viscometry; for mass density: Vibrating tube method

CCCCO [butan-1-ol]
[1]
Conditions	mass density [kg/m3]	viscosity [mPa·s]
288.15 K	813.46	3.365
293.15 K	809.66	2.913
298.15 K	805.84	2.563
303.15 K	801.99	2.257
308.15 K	798.12	1.994
313.15 K	794.22	1.779
318.15 K	790.28	1.576
323.15 K	786.29	1.422

CCCCCCO [hexan-1-ol]
[1]
Conditions	mass density [kg/m3]	viscosity [mPa·s]
288.15 K	822.26	6.308
293.15 K	818.7	5.332
298.15 K	815.12	4.538
303.15 K	811.52	3.896
308.15 K	807.89	3.361
313.15 K	804.25	2.917
318.15 K	800.56	2.546
323.15 K	796.85	2.241

CCCCCCO [hexan-1-ol] + CCCC(=O)OCC
[2]
Conditions	mass density [kg/m3]	viscosity [mPa·s]
288.15 K	822.26	6.308
293.15 K	818.7	5.332
298.15 K	815.12	4.538
303.15 K	811.52	3.896
308.15 K	807.89	3.361
313.15 K	804.25	2.917
318.15 K	800.56	2.546
323.15 K	796.85	2.241

CC(C)CCO [3-methylbutan-1-ol] + CCCC(=O)OCC
[2]
Conditions	mass density [kg/m3]	viscosity [mPa·s]
288.15 K	812.29	5.057
293.15 K	808.58	4.288
298.15 K	804.84	3.671
303.15 K	801.09	3.155
308.15 K	797.31	2.73
313.15 K	793.51	2.375
318.15 K	789.67	2.076
323.15 K	785.79	1.841

CC(C)CCO [3-methylbutan-1-ol]
[1]
Conditions	mass density [kg/m3]	viscosity [mPa·s]
288.15 K	812.29	5.057
293.15 K	808.58	4.288
298.15 K	804.84	3.671
303.15 K	801.09	3.155
308.15 K	797.31	2.73
313.15 K	793.51	2.375
318.15 K	789.67	2.076
323.15 K	785.79	1.841
